Data from patent US6403575B1, “3-Pyridyl enantiomers and their use as analgesics” (Abbott Laboratories, priority 1996, dated 2002).
Structures can show the parent of a compound that is named as a salt. Where two headings read alike, the source gives them in different places.

Key:
beagle dogs = format: in vivo; conditions: anesthetized dog, i.v. bolus 10 nmol/kg
Description: Male beagle dogs were anesthetized with pentobarbital (35 mg/kg, i.v.) followed by constant i.v. infusion of pentobarbital (5 mg/kg/h). The animals were ventilated with room air by means of a mechanical respiration pump. Blood pressure was measured using a dual tip micromanometer catheter (Millar, Model SPC-770, 7F) inserted into the heart left ventricle via the carotid artery. Compounds were injected into the right femoral vein via catheter. Hemodynamic variables were computed using XYZ Real Time Spreadsheet software on a signal processing workstation (Modular Instruments, Inc.). Sixty minutes were allowed following surgery to achieve a steady-state baseline for the measured variables. Test compounds were administered by i.v. bolus (10 nmol/kg) and compared for their relative ability to elicit changes in blood pressure and heart rate over a five minute data collection period.

mice = experiment: Mouse Hot Plate Paradigm; format: in vivo; conditions: 30 minutes prior to testing, 55° C.; for minimal effective dose: ip, 0.5 h, i.p., read-out: MED Hot plate model (μmol/kg, i.p.)
rats [1] = experiment: Chung Model of Neuropathic Pain; format: in vivo; parameters: key: NS = no significant effect observed relative to saline controls at the doses tested; conditions: rat, 50% threshold to VonFrey hairs
[2] = biological target: T1, peripheral ganglionic receptors (Homo sapiens, UniProt P30926+P32297); experiment: 86Rb+ flux activation in IMR-32 human neuroblastoma cells; format: cell-based; conditions: 1 μM compound, % of maximum response to (S)-nicotine
T1 construct: Cells of the IMR-32 human neuroblastoma clonal cell line (ATCC, Rockville, Md.); host or cells: IMR-32 human neuroblastoma cells
Description: Protocol for the Determination of Ability of Nicotinic Acetylcholine Receptor Ligands to Activate Peripheral Ganglionic Receptors
Cells of the IMR-32 human neuroblastoma clonal cell line (ATCC, Rockville, Md.) were maintained in a log phase of growth according to established procedures. Experimental cells were seeded at a density of 500,000 cells/mL into a 24-well tissue culture dish. Plated cells were allowed to proliferate for at least 48 hours before loading with 2 μCi/mL of ^86Rb^+ (35 Ci/mmol) overnight at 37° C. The ^86Rb^+ efflux assays were performed according to previously published protocols (Lukas, R. J., J. Pharmacol. Exp. Ther., 265: 294-302, 1993) except serum-free Dulbecco's Modified Eagle's Medium was used during the ^86Rb^+ loading, rinsing, and agonist-induced efflux steps. Data reflect the activation of ^86Rb^+ flux at a concentration of 1 μM, and reflect the response as a percentage of the maximum response elicited by (S)-nicotine.

[3] = biological target: T2, neuronal nicotinic acetylcholine receptors (Rattus norvegicus, UniProt P09483+P12390); experiment: [3H]-cytisine binding to neuronal nicotinic acetylcholine receptors, whole rat brain membranes; conditions: [3H]-cytisine 1.25 nM, whole rat brain membranes; read-out: [3H] CYT Ki
T2 construct: crude synaptic membrane preparations from whole rat brain; from tissue; host or cells: whole rat brain, crude synaptic membranes
Description: Protocol for Determination of Nicotinic Acetylcholine Channel Receptor Binding Potencies of Ligands
Binding of [^3H]-cytisine ([^3H]-CYT) to neuronal nicotinic acetylcholine receptors was accomplished using crude synaptic membrane preparations from whole rat brain (Pabreza et al., Molecular Pharmacol., 1990, 39:9). Washed membranes were stored at −80° C. prior to use. Frozen aliquots were slowly thawed and resuspended in 20 volumes of buffer (containing: 120 mM NaCl, 5 mM KCl, 2 mM MgCl2, 2 mM CaCl2 and 50 mM Tris-Cl, pH 7.4 @4° C.). After centrifuging at 20,000×g for 15 minutes, the pellets were resuspended in 30 volumes of buffer. Homogenate (containing 125-150 μg protein) was added to triplicate tubes containing concentrations of test compound and [^3H]-CYT (1.25 nM) in a final volume of 500 μL. Samples were incubated for 60 minutes at 4° C., then rapidly filtered through Whatman GF/B filters presoaked in 0.5% polyethyleneimine using 3×4 mL of ice-cold buffer. The filters are counted in 4 mL of Ecolume® (ICN). Nonspecific binding was determined in the presence of 10 μM (−)-nicotine and values were expressed as a percentage of total binding.

rat spinal cord cultures = experiment: Neuroprotection against substance P or glutamate toxicity in primary spinal cord cultures (LDH release); format: cell-based; conditions: for block of SP-induced toxicity: SP 30 μM, spantide II 100 μM, MK-801
[4] = biological target: neuromuscular junction nicotinic acetylcholine receptor (Tetronarce californica, UniProt P02710+P02714+P02718); experiment: biochemical; format: binding, Torpedo Californica; conditions: read-out: Ki (nM) α-bungarotoxin
rats [5] = experiment: Paw Thermal Stimulator (Hotbox) Model; format: in vivo; conditions: rat, i.p., tested 0.62 to 6.2 μmol/kg
Excerpt: For assessing nociceptive responses to an acute thermal stimulus, a commercially available paw thermal stimulator was utilized (Anesthesiology Research Laboratory, Department of Anesthesiology, University of California at San Diego, La Jolla, Calif.). This device has been previously described (Dirig, D. M. and Yaksh, T. L., Pain, 62: 321-328, 1995) and is based on the initial work of Hargreaves et al. (Pain, 32: 77-88, 1988). Rats were placed in Plexiglas cubicles that were located on a glass surface of the apparatus. The surface of the glass was maintained at 30° C. A thermal stimulus was applied to the bottom of the rear foot of the rat via a movable focused projection bulb. The stimulus current was maintained at 4.8 Amps. The latency until the animal moved its foot from the stimulus was recorded automatically by use of photodiode motion sensors. In the current studies, a 20 second cut-off was employed to limit possible tissue damage following exposure to the stimulus.
All studies began with a 20 min acclimation period. Following the acclimation period, a baseline measure was determined for each animal. Following determination of baseline, treatments were administered and measures were taken at various time points following treatment (e.g., 15, 30, and 45 min). For clarity, data were collapsed over time for statistical analysis (unless otherwise noted).
Stock solutions of compounds were prepared in absolute ethanol at a concentration of 62 μmol/ml. From this, solutions were made with 10% ethanol, and dosed by injection i.p. Compounds were tested in the dose range of from 0.62 to 6.2 μmol/kg.
For measurements, the following protocol was utilized. Six animals were used in each run. For any given measure (e.g., time point), one foot of each of the 6 animals was tested and then the process was repeated for the opposite foot. Mean values for the response were then computed based on the two scores.

rats [6] = experiment: Carrageenan paw edema model; format: in vivo; conditions: rat
rats [7] = experiment: Chung Model of Neuropathic Pain following repeated dosing; format: in vivo; conditions: rat, in vivo, ip
Description: Animals were surgically prepared as described above for the Chung model. For assessment of each test compound, two treatment groups (6 animals each) were established. One group was injected (i.p.) with test compound twice daily for 5 days, and the other group was injected on the same schedule with saline. Responses to von Frey hairs were assessed as described above both before, and 15 minutes after, injection on the first 2 days and also on the 5th day. The saline-treatment group was given saline for the first 4 days and on the morning of the 5th day, but received a challenge of the test compound in the afternoon of the fifth day.

[8] = mecamylamine 10 μM, MLA 10 nM, α-BTX 1 nM

T2 sequence (P09483 31-630): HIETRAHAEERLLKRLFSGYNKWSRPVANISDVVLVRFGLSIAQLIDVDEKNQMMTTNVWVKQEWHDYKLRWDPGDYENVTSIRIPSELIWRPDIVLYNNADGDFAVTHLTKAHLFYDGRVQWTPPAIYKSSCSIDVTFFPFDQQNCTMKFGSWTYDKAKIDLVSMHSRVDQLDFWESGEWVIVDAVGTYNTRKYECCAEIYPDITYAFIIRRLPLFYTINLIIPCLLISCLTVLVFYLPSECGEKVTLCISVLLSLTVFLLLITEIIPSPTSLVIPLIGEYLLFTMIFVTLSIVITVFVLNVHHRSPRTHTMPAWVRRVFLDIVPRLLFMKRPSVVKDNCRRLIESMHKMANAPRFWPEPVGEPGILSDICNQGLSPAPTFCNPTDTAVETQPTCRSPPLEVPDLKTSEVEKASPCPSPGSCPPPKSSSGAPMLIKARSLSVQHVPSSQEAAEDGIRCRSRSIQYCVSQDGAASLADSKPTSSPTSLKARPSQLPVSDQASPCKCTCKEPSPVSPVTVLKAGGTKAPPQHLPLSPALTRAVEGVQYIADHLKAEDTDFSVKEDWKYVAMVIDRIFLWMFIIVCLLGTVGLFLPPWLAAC
T2 sequence (P12390 25-500): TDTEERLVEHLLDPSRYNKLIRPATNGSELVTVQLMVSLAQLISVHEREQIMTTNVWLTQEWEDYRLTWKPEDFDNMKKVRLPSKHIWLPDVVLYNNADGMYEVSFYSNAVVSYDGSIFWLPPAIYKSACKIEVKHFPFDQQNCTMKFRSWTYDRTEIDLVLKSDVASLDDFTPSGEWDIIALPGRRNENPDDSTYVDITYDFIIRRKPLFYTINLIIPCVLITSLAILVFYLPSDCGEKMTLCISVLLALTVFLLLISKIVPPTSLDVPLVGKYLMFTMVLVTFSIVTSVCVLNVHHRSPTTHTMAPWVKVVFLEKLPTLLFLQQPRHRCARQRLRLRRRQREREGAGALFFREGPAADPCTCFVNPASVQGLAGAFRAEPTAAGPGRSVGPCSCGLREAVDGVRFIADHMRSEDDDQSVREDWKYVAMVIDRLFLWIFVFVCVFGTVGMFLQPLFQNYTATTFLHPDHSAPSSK
T1 sequence (P32297 32-505): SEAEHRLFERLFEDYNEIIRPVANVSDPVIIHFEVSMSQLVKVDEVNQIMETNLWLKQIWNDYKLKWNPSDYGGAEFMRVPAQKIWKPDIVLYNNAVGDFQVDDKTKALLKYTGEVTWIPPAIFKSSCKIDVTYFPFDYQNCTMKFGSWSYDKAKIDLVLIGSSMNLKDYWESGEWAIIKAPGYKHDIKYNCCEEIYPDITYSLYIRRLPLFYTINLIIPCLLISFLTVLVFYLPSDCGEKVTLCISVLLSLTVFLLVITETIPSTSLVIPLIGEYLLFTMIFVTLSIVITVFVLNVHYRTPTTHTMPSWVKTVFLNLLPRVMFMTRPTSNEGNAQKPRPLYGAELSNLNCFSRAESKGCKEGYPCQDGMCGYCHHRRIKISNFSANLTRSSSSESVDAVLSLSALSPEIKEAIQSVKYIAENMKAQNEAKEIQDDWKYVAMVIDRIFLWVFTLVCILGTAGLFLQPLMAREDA
T1 sequence (P30926 22-498): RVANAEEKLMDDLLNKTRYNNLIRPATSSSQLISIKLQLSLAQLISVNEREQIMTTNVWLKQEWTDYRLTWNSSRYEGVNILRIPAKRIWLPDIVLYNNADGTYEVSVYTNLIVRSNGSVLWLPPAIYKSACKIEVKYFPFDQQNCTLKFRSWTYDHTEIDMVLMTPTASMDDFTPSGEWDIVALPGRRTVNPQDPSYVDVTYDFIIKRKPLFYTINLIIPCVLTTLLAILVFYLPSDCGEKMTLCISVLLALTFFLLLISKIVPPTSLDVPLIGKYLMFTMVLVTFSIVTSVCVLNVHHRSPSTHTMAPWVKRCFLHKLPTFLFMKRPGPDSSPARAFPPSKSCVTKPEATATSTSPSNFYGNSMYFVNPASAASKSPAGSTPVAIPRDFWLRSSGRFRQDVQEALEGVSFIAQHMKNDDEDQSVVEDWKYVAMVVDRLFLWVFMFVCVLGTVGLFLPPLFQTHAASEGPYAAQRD
neuromuscular junction nicotinic acetylcholine receptor, sequence (P02714 18-506): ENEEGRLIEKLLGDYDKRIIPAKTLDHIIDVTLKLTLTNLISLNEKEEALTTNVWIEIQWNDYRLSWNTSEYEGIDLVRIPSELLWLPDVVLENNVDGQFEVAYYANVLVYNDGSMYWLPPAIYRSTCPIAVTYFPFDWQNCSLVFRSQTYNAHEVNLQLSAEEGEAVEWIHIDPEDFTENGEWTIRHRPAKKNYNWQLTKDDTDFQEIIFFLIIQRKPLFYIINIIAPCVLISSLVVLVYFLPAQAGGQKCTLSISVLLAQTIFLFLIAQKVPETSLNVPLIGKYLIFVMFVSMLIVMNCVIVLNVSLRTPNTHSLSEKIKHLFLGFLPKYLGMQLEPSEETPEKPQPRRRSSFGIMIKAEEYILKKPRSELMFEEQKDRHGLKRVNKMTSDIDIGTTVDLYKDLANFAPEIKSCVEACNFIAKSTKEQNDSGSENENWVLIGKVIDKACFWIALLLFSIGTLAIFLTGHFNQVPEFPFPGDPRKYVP
neuromuscular junction nicotinic acetylcholine receptor, sequence (P02710 25-461): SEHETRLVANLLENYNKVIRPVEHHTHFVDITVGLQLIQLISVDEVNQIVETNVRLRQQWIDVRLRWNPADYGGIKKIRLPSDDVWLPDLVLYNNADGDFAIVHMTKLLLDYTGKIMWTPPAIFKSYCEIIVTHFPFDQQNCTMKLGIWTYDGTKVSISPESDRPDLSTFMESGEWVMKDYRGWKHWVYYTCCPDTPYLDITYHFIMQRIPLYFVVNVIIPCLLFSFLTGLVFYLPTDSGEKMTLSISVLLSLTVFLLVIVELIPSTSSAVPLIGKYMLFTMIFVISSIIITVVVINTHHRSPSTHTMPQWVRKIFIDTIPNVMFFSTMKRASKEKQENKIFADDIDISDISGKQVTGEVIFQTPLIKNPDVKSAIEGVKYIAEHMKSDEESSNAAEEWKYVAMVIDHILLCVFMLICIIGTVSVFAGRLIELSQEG
neuromuscular junction nicotinic acetylcholine receptor, sequence (P02712 25-493, further chain): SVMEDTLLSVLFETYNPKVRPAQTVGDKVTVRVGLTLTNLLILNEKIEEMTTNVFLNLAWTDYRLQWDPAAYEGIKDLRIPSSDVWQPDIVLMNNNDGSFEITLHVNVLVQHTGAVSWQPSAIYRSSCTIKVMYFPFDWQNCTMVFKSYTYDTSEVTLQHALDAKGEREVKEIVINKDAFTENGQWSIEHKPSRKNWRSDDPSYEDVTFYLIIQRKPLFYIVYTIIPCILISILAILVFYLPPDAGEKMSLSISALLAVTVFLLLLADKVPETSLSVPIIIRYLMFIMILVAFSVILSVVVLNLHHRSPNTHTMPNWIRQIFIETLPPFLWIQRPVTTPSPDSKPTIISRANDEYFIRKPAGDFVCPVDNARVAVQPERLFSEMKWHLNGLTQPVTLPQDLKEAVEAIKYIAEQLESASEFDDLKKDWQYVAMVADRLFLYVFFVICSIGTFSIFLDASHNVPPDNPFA
neuromuscular junction nicotinic acetylcholine receptor, sequence (P02718 22-522): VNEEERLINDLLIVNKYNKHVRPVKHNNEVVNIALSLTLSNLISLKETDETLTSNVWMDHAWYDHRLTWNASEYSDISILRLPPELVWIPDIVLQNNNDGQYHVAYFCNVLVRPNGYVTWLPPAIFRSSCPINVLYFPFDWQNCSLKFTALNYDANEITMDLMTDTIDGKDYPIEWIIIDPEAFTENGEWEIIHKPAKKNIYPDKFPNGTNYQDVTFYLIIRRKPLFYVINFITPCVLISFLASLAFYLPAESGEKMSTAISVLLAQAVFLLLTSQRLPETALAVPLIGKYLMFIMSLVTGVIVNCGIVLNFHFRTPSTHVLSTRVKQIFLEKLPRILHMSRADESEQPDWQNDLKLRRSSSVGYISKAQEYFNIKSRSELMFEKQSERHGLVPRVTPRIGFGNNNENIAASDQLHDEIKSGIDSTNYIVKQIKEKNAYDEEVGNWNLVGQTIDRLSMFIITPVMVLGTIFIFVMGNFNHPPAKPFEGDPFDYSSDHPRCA

Clc1ccc(OC[C@H]2CCN2)cn1 [Example 1, 5-((2R)-Azetidinylmethoxy)-2-chloropyridine]
Increase in Diastolic Blood Pressure (mm Hg) (beagle dogs): 23.2 ± 4.6 mm Hg | Increase in Heart Rate (beats/min) (beagle dogs): 7.8 ± 2.9 beats/min | blood pressure increase as fraction of that seen with Example 19 (beagle dogs): ⅓ | heart rate increase as fraction of that seen with Example 19 (beagle dogs): ⅓

Fc1cncc(OC[C@@H]2CCN2)c1 [Example 10, 5-((2S)-Azetidinylmethyloxy)-3-fluoropyridine dihydrochloride]
minimal effective dose (mice): 6.2 µmol/kg | MED Chung model (μmol/kg, i.p.) (rats [1]): 0.62 µmol/kg | IMR-32 % maximal nicotine response at 1 μM Cmpd conc'n [2]: 28% | Ki [3]: 0.09 nM

Clc1cc(OC[C@@H]2CCN2)cnc1Cl [Example 15, 5-((2S)-azetidinylmethoxy)-2,3-dichloropyridine hydrochloride]
minimal effective dose (mice): 1.9 µmol/kg | MED Chung model (μmol/kg, i.p.) (rats [1]): NS | IMR-32 % maximal nicotine response at 1 μM Cmpd conc'n [2]: 117% | Ki [3]: 0.02 nM

Clc1cc(OC[C@H]2CCN2)cnc1Cl [Example 16, 5-((2R)-azetidinylmethoxy)-2,3-dichloropyridine hydrochloride]
minimal effective dose (mice): 6.2 µmol/kg | MED Chung model (μmol/kg, i.p.) (rats [1]): 0.19 µmol/kg | IMR-32 % maximal nicotine response at 1 μM Cmpd conc'n [2]: 85% | Ki [3]: 0.06 nM

Clc1ncc(OC[C@@H]2CCN2)cc1Br [Example 17, 5-((2S)-azetidinylmethoxy)-3-bromo-2-chloropyridine hydrochloride]
minimal effective dose (mice): 1.9 µmol/kg | MED Chung model (μmol/kg, i.p.) (rats [1]): 0.19 µmol/kg | IMR-32 % maximal nicotine response at 1 μM Cmpd conc'n [2]: 120% | Ki [3]: 0.02 nM

Clc1ncc(OC[C@H]2CCN2)cc1Br [Example 18, 5-((2R)-azetidinylmethoxy)-3-bromo-2-chloropyridine hydrochloride]
minimal effective dose (mice): 0.62 µmol/kg | IMR-32 % maximal nicotine response at 1 μM Cmpd conc'n [2]: 93% | Ki [3]: 0.02 nM

Cl.Cl.Clc1ccc(OC[C@@H]2CCN2)cn1 [Example 19, 5-((2S)-Azetidinylmethyloxy)-2-chloropyridine dihydrochloride]
MED Hot plate model (μmol/kg, i.p.) (mice): 0.62 µmol/kg | MED Chung model (μmol/kg, i.p.) (rats [1]): 0.3 µmol/kg | less potent as a neuroprotectant in spinal cord (rat spinal cord cultures; relative to compound of Example 4): 10 fold | IMR-32 % maximal nicotine response at 1 μM Cmpd conc'n [2]: 173% | Increase in Diastolic Blood Pressure (mm Hg) (beagle dogs): 67.3 ± 3.2 mm Hg | Increase in Heart Rate (beats/min) (beagle dogs): 26.0 ± 7.8 beats/min | Ki [3]: 0.04 nM | Ki [4]: 1300 nM

C[C@H](NC(=O)OC(C)(C)C)C(=O)N1CC[C@@H]1COc1ccc(F)nc1 [Example 54]
analgesic dose (rats [5]): >6.2 µmol/kg

O=C1CCC(=O)N1CN1CC[C@@H]1COc1ccc(F)nc1 [Example 71]
analgesic dose (rats [5]): 0.62 µmol/kg

O=C1c2ccccc2C(=O)N1CN1CC[C@@H]1COc1ccc(F)nc1 [Example 72]
analgesic dose (rats [5]): 0.62 µmol/kg

CC1(C)CC(=O)C=C(N2CC[C@@H]2COc2ccc(F)nc2)C1 [Example 75]
analgesic dose (rats [5]): 6.2 µmol/kg

O=C(Oc1ccccc1)N1CC[C@@H]1COc1ccc(F)nc1 [Example 79]
analgesic dose (rats [5]): 0.62 µmol/kg

O=C(Oc1ccc([N+](=O)[O-])cc1)N1CC[C@@H]1COc1ccc(F)nc1 [Example 80]
analgesic dose (rats [5]): 0.62 µmol/kg

COc1ccc(OC(=O)N2CC[C@@H]2COc2ccc(F)nc2)cc1 [Example 81]
analgesic dose (rats [5]): 0.62 µmol/kg

O=C(N1CCCC1)N1CC[C@@H]1COc1ccc(F)nc1 [Example 92]
analgesic dose (rats [5]): >6.2 µmol/kg

O=C(CCSSCCC(=O)N1CC[C@@H]1COc1ccc(F)nc1)N1CC[C@@H]1COc1ccc(F)nc1 [Example 95]
analgesic dose (rats [5]): >6.2 µmol/kg

Cl.Fc1ncccc1OC[C@@H]1CCN1 [Example 122, 2-Fluoro-3-(2(S)-azetidinylmethoxy)pyridine hydrochloride]
MED Chung model (μmol/kg, i.p.) (rats [1]): 1.9 µmol/kg

C[C@]12N[C@H](Cc3ccccc31)c1ccccc12 [MK-801]
block of Glu-induced toxicity (rat spinal cord cultures; Glu 300 μM, MK-801 1 μM): blocked | block of SP-induced toxicity (rat spinal cord cultures): cannot prevent

CNC1(C)C2CCC(C2)C1(C)C (centres unmarked) [mecamylamine, reference compound]
block of the neuroprotective effect by nicotinic antagonists (rat spinal cord cultures; [8]): blocked | prevention of the paw edema effect of Example 4 by nicotinic antagonist (rats [6]): prevented | prevention of the paw edema effect of Example 4 by nicotinic antagonist (rats [6]; listed as mecaamylamine): prevents this effect

CCN1C[C@]2(COC(=O)c3ccccc3N3C(=O)C[C@H](C)C3=O)CC[C@H](OC)[C@@]34[C@@H]5C[C@H]6[C@H](OC)[C@@H]5[C@](O)(C[C@@H]6OC)[C@@](O)([C@@H](OC)[C@H]23)[C@@H]14 [methyllycaconitine]
block of the neuroprotective effect by nicotinic antagonists (rat spinal cord cultures; [8]): blocked

CN1CC[C@]23c4c5ccc(O)c4O[C@H]2[C@@H](O)C=C[C@H]3[C@H]1C5 [morphine, reference compound]
anti-allodynic effect following repeated dosing (rats [7]): significantly reduced

spantide II
block of SP-induced toxicity (rat spinal cord cultures): blocked

α-bungarotoxin
block of the neuroprotective effect by nicotinic antagonists (rat spinal cord cultures): blocked
